Measured values from patent US20070275100A1, “Use of gaseous nitric oxide as an anti-cancer agent” (priority 1998, published 2007).

What was measured:
Staphylococcus aureus = experiment: High dose gNO on Staphylococcus aureus plated on blood agar (Example 2); type: cell-based; details: 25,000 ppm gNO
From the text: The purpose of this example is to observe the possibility of a novel bactericidal high dose (25,000 ppm) effect of gaseous nitric oxide (gNO) on an ATCC strain of Staphylococcus aureus plated on a blood agar media and determine a time effect of this dosage.
A closed environment treatment chamber was used (see, “A direct nitric oxide gas delivery system for bacterial and mammalian cell cultures,” A. Ghaffari, D. H. Neil, A. Ardakani, J. Road, A. Ghahary, C. C. Miller. Nitric Oxide 12(3):129-140, 2005, herein incorporated by reference in its entirety). The following steps were performed: • 1. Calibrated the AeroNOx analyzer as per standard procedure. • 2. Calibrated the closed environment treatment chamber as per standard procedure. • 3. In a 50 mL tube, known Staphylococcus aureus bacteria in 10 mL Nutrient Broth was grown overnight or for about 12 hours in a shaker incubator. • 4. Measured optical density of grown Staphylococcus aureus using a spectrophotometer set at 600 nm. Used original nutrient broth as a blank. O.D. should be 1.0±10%. • 5. Turned on closed environment treatment chamber. • 6. Labeled three plates: Air, NO+1 minute, NO+3 minutes. • 7. Immersed a sterile cotton swab into the bacterial mixture in the 50 mL tube and shaked off excess liquid. • 8. Swiped one plate entirely in two directions with the swab. • 9. Repeated steps 7-8 using the cotton swab for the remaining […] plates. • 10. Using clean technique, utilized the device to administer either air or 25,000 ppm gNO at a fixed distance and flow towards the inoculated agar media. The agar plate was enclosed in an isolated plastic box with lid. A micropipette through which the gas flowed was affixed to the box lid. The box lid was sealed through the use of plastic wrap. The micropipette was in fluid communication with the gaseous mixing manifold in order to deliver the specified concentrations. • 11. Placed the three treated plates into the laboratory incubator. • 12. Removed plates after 8 hours and placed in a 37° C. incubator for 12-16 hours. • 13. After incubation, recorded results with digital pictures. • 14. Sealed plates with paraffin and refrigerated for storage.

[1] = system: normal human bronchial epithelial cells (NHBE); experiment: Viability under 25,000 ppm gNO (Example 5), NHBE; type: cell-based; details: after 6 minutes, FIG. 8 A
Procedure: After 24 hours, the A549, NCI-H23, NCI-H460, HTB-58, H2170 and H441 cells were treated with 25,000 ppm gNO or air (control) for 1 minute, 3 minutes, 6 minutes, 9 minutes, 10 minutes, 20 minutes, and 30 minutes. Immediately following treatment, the viability of the cells was determined using a colorimetric MTS (3-(4,5-dimethylthiazol-2-yl)-5-(3-carboxymethoxyphenyl)-2-(4-sulfophenyl)-2H-tetrazolium, inner salt) cell proliferation assay (commercially available as the CellTiter 960 Aqueous One Solution Cell Proliferation Assay (MTS) from Promega, Madison, Wis., USA) according to the manufacturer's protocol. Briefly, […] of MTS solution was added to each well and the cells were incubated for 2 hours at 37° C. Absorbance was measured at 490 nm for each well using a micro-plate reader (commercially available from Dynex Technologies, Chantilly, Va., USA). The relative percentage of cell survival (viability) was calculated by dividing the absorbance of treated cells by that of control cells for each experimental time point.
The purpose of this example is to illustrate the effects on normal human cell lines compared to the effects on cancerous cell lines of high-dosage gNO. The above study was repeated. […]

[2] = system: infected wound on the skin; experiment: Topical gNO applied to an infected wound on the skin; type: in vivo; details: 200 ppm gNO topically applied
From the text: For anti-inflammatory applications of high concentrations of gNO, it is hypothesized that the high dose of NO acts as a feedback loop to down regulate iNOS, and/or acts as a antioxidant on peroxynitrite and other reactive oxygen species and/or remove the stimulus such as bacterial load all leading to the amelioration of high levels of NO or its reactants resulting in damaging pathogenesis. This hypothesis is supported by testing results of the Applicant wherein 200 ppm gNO was topically applied to an infected wound on the skin. […] It is hypothesized that the body stopped producing the “bad” NO causing pathogenic inflammation.

[3] = system: bacteria that cause nosocomial pneumonia in the intensive care unit; details: continuous in vitro exposure to 200 ppm gNO; cited from earlier work

Compound: [N]=O [gNO, nitric oxide]
- effect on the growth of S. aureus (Staphylococcus aureus; 1 minute): profound inhibitory effect
- plate appearance after incubation (FIG. 4) (Staphylococcus aureus; 1 minute of exposure): the plate still shows signs of the S. aureus
- effect on the growth of S. aureus (Staphylococcus aureus; 3 minutes): possible cidal effect
- plate appearance after incubation (FIG. 5) (Staphylococcus aureus; 3 minutes of exposure): the plate shows no signs of the S. aureus
- viability [1]: less than 10%
- bacterial load [2]: significantly reduced
- inflammatory bodies (histological results) [2]: significant reduction
- serum NOX levels ([2]; compared to the infected control): lower
- time to cytocidal effect [3]: ≤ 5 h
